The subject of the experiment is L1210 leukemia ip in BDF1 mice, survival T/C. The experiment in a line: NCI In Vivo Anticancer Drug Screen. Data for tumor model L1210 Leukemia (intraperitoneal) in B6D2F1 (BDF1) mice. Particulars: endpoint: mean survival time, higher = longer survival. The method, boiled down:
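Antitumor effect is assessed in tumor-bearing animals. Survival in the compound arm is compared with a vehicle-dosed control arm and expressed as their quotient.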

Setting [1] is: dose: 100.0 mg/kg/injection, schedule: Q04DX003 (ip), vehicle: Klucel (hydroxypropylcellulose) (HPC).
The mark [2] stands for this setting: dose: 200.0 mg/kg/injection, schedule: Q04DX003 (ip), vehicle: Klucel (hydroxypropylcellulose) (HPC).
Where [3] appears, read: dose: 100.0 mg/kg/injection, schedule: Q01DX009 (ip), vehicle: Klucel (hydroxypropylcellulose) (HPC).
The mark [4] stands for this setting: dose: 200.0 mg/kg/injection, schedule: Q01DX009 (ip), vehicle: Klucel (hydroxypropylcellulose) (HPC).
Setting [5] is: dose: 25.0 mg/kg/injection, schedule: Q01DX009 (ip), vehicle: Klucel (hydroxypropylcellulose) (HPC).
[6] abbreviates: dose: 25.0 mg/kg/injection, schedule: Q04DX003 (ip), vehicle: Klucel (hydroxypropylcellulose) (HPC).
Where [7] appears, read: dose: 50.0 mg/kg/injection, schedule: Q01DX009 (ip), vehicle: Klucel (hydroxypropylcellulose) (HPC).
The mark [8] stands for this setting: dose: 50.0 mg/kg/injection, schedule: Q04DX003 (ip), vehicle: Klucel (hydroxypropylcellulose) (HPC).
[9] abbreviates: dose: 100.0 mg/kg/injection, schedule: Q01DX001 (ip), vehicle: Klucel (hydroxypropylcellulose) (HPC).
The mark [10] stands for this setting: dose: 200.0 mg/kg/injection, schedule: Q01DX001 (ip), vehicle: Klucel (hydroxypropylcellulose) (HPC).
[11] abbreviates: dose: 50.0 mg/kg/injection, schedule: Q01DX001 (ip), vehicle: saline.
The mark [12] stands for this setting: dose: 100.0 mg/kg/injection, schedule: Q01DX001 (ip), vehicle: saline.
The mark [13] stands for this setting: dose: 200.0 mg/kg/injection, schedule: Q01DX001 (ip), vehicle: saline.
[14] abbreviates: dose: 400.0 mg/kg/injection, schedule: Q01DX001 (ip), vehicle: saline.

Each structure is given as a SMILES string. Inconclusive results and toxic doses are left out.

As for `CNc1c2c(nc3ccccc13)CCCC2`, the T/C is 93 % of control (dose: 1.25 mg/kg/injection, schedule: Q01DX009 (ip), vehicle: saline with Tween-80); 97 % of control (dose: 1.25 mg/kg/injection, schedule: Q04DX003 (ip), vehicle: saline with Tween-80); 91 % of control (dose: 2.5 mg/kg/injection, schedule: Q01DX009 (ip), vehicle: saline with Tween-80); 108 % of control (dose: 2.5 mg/kg/injection, schedule: Q04DX003 (ip), vehicle: saline with Tween-80); 89 % of control (dose: 5.0 mg/kg/injection, schedule: Q01DX009 (ip), vehicle: saline with Tween-80); 102 % of control (dose: 5.0 mg/kg/injection, schedule: Q04DX003 (ip), vehicle: saline with Tween-80).
With `CC(=O)C1CCCC23CC(CC12)C(C)(C)C3Br` (stereo not drawn), the T/C reads like this: under setting [1], 100 % of control; under setting [2], 103 % of control; (dose: 400.0 mg/kg/injection, schedule: Q04DX003 (ip), vehicle: Klucel (hydroxypropylcellulose) (HPC)) 97 % of control.
For the compound `CCOC(=O)c1ccc(NC(=O)Nc2cccc(F)c2)cc1`, the T/C runs as follows: under setting [3], 101 % of control; under setting [4], 100 % of control.
The matching figures for `C=C(Br)CNC(=O)Nc1ccccn1`: 93 % of control and 96 % of control.
As for `COc1ccc(-c2cccc(-c3ccccc3)n2)cc1`, the T/C is 91 % of control (dose: 12.5 mg/kg/injection, schedule: Q04DX003 (ip), vehicle: Klucel (hydroxypropylcellulose) (HPC)); 106 % of control under setting [5]; 98 % of control under setting [6]; 100 % of control under setting [7]; 98 % of control under setting [8]; 89 % of control under setting [3]. In addition, the T/C under setting [1] was 96 % of control.
As for `c1cnc2c(c1)Oc1cccnc1N2`, the T/C was 98 % of control (dose: 50.0 mg/kg/injection, schedule: Q01DX001 (ip), vehicle: Klucel (hydroxypropylcellulose) (HPC)); 92 % of control under setting [9]; 90 % of control under setting [10].
With `COc1ccc(C(N)C(=O)O)cc1` (stereo not drawn), the T/C was 94 % of control under setting [11]; 110 % of control (dose: 75.0 mg/kg/injection, schedule: Q01DX009 (ip), vehicle: Klucel (hydroxypropylcellulose) (HPC)); 96 % of control under setting [9]; 94 % of control under setting [12]; 113 % of control (dose: 150.0 mg/kg/injection, schedule: Q01DX009 (ip), vehicle: Klucel (hydroxypropylcellulose) (HPC)); 97 % of control under setting [10]. In addition, the T/C under setting [13] was 96 % of control; the T/C (dose: 300.0 mg/kg/injection, schedule: Q01DX009 (ip), vehicle: Klucel (hydroxypropylcellulose) (HPC)) was 101 % of control; the T/C (dose: 400.0 mg/kg/injection, schedule: Q01DX001 (ip), vehicle: Klucel (hydroxypropylcellulose) (HPC)) was 92 % of control; the T/C under setting [14] is 96 % of control.
For the compound `O=CN/N=C/c1cc(=O)[nH]c(=O)[nH]1`, the T/C was 87 % of control under setting [12], 87 % of control under setting [13] and 93 % of control under setting [14].
For the compound `CCN(CC)CC(=O)NC(CCN(C)C)c1cccc2ccccc12` (stereo not drawn), the T/C (dose: 25.0 mg/kg/injection, schedule: Q04DX002 (ip), vehicle: saline) was 103 % of control; the T/C (dose: 50.0 mg/kg/injection, schedule: Q04DX002 (ip), vehicle: saline) was 103 % of control; the T/C (dose: 100.0 mg/kg/injection, schedule: Q04DX002 (ip), vehicle: saline) is 98 % of control.
For the compound `CC1(C)CCCC/C1=N\NC(N)=O`, the T/C (dose: 37.5 mg/kg/injection, schedule: Q01DX009 (ip), vehicle: saline with Tween-80) is 98 % of control; the T/C (dose: 75.0 mg/kg/injection, schedule: Q01DX001 (ip), vehicle: other) is 102 % of control; the T/C (dose: 75.0 mg/kg/injection, schedule: Q01DX009 (ip), vehicle: saline with Tween-80) is 96 % of control; the T/C (dose: 75.0 mg/kg/injection, schedule: Q04DX003 (ip), vehicle: saline sonified) was 98 % of control; the T/C (dose: 150.0 mg/kg/injection, schedule: Q01DX001 (ip), vehicle: other) was 102 % of control; the T/C (dose: 150.0 mg/kg/injection, schedule: Q01DX009 (ip), vehicle: saline with Tween-80) was 94 % of control. The T/C is 87 % of control (dose: 150.0 mg/kg/injection, schedule: Q04DX003 (ip), vehicle: saline sonified) and 102 % of control (dose: 300.0 mg/kg/injection, schedule: Q01DX001 (ip), vehicle: other).
On to `Cc1ccc(NS(=O)(=O)c2ccc([N+](=O)[O-])cc2)cc1`, for which the T/C was 103 % of control (dose: 100.0 mg/kg/injection, schedule: Q04DX003 (ip), vehicle: saline with Tween-80); 89 % of control (dose: 200.0 mg/kg/injection, schedule: Q04DX003 (ip), vehicle: saline with Tween-80); 89 % of control (dose: 400.0 mg/kg/injection, schedule: Q04DX003 (ip), vehicle: saline with Tween-80).
Consider `Cc1ccc(C2=CCCCC2)cc1`, for which the T/C (dose: 50.0 mg/kg/injection, schedule: Q01DX001 (ip), vehicle: carboxymethylcellulose (CMC)) is 96 % of control; the T/C (dose: 100.0 mg/kg/injection, schedule: Q01DX001 (ip), vehicle: carboxymethylcellulose (CMC)) is 96 % of control; the T/C (dose: 400.0 mg/kg/injection, schedule: Q01DX001 (ip), vehicle: carboxymethylcellulose (CMC)) was 94 % of control.
As for `OB(O)c1ccc(F)cc1`, the T/C runs as follows: (dose: 100.0 mg/kg/injection, schedule: Q04DX003 (ip), vehicle: acetone) 101 % of control; (dose: 200.0 mg/kg/injection, schedule: Q04DX003 (ip), vehicle: acetone) 98 % of control; (dose: 400.0 mg/kg/injection, schedule: Q04DX003 (ip), vehicle: acetone) 97 % of control.
Take `O=NN(CCCl)C(=O)NC(C(=O)O)C1CCCCC1` (stereo not drawn): the T/C runs as follows: (dose: 8.0 mg/kg/injection, schedule: Q01DX001 (ip), vehicle: saline with Tween-80) 118 % of control; (dose: 12.0 mg/kg/injection, schedule: Q01DX001 (ip), vehicle: saline with Tween-80) 171 % of control; (dose: 26.0 mg/kg/injection, schedule: Q01DX001 (ip), vehicle: saline with Tween-80) 153 % of control; (dose: 40.0 mg/kg/injection, schedule: Q01DX001 (ip), vehicle: saline with Tween-80) 253 % of control; (dose: 60.0 mg/kg/injection, schedule: Q01DX001 (ip), vehicle: saline with Tween-80) 412 % of control; (dose: 90.0 mg/kg/injection, schedule: Q01DX001 (ip), vehicle: saline with Tween-80) 482 % of control. For the same compound, the T/C (dose: 133.0 mg/kg/injection, schedule: Q01DX001 (ip), vehicle: saline with Tween-80) is 266 % of control.
Regarding `OCC(O)C(O)C(O)C(c1ccccc1)c1ccccc1` (stereo not drawn), the T/C by setting is: under setting [11], 107 % of control; under setting [12], 98 % of control; under setting [13], 96 % of control; under setting [14], 98 % of control.
For the compound `O=P(c1ccccc1)(N1CCCC1)N1CCCC1`, the T/C is, setting by setting: (dose: 100.0 mg/kg/injection, schedule: Q04DX003 (ip), vehicle: saline) 95 % of control; (dose: 200.0 mg/kg/injection, schedule: Q04DX003 (ip), vehicle: saline) 92 % of control.
`CC(C)(O)C(C)(O)c1cccc(Cl)c1` (stereo not drawn): the T/C by setting is: (dose: 12.5 mg/kg/injection, schedule: Q01DX009 (ip), vehicle: Klucel (hydroxypropylcellulose) (HPC)) 100 % of control; under setting [5], 109 % of control; under setting [6], 91 % of control; under setting [7], 100 % of control; under setting [8], 93 % of control; under setting [3], 100 % of control. For the same compound, the T/C under setting [1] was 96 % of control, the T/C under setting [4] was 98 % of control and the T/C under setting [2] was 90 % of control.

The values above are taken from PubChem BioAssay AID248 (DTP/NCI, 2004).
